# No end group written: not given here.
# Tested on: MDCK (Madin-Darby Canine Kidney) cells
# Experiment: Passage across an epithelium with tight junctions (TRANSWELL system)
# Format: in vitro ADME
# Settings: for passage into the apical compartment: Example 4: basolateral compartment, 10 μM, 30 minutes at 370° C.
# Protocol: The passage of the Penet and NES-Penet peptides across an epithelium with tight junctions was evaluated using the device (TRANSWELL system, CORNING-COSTAR) represented in FIG. 3.
# This device comprises two compartments (1, 2) separated by a microporous polyester membrane (3) on which an epithelium (4) consisting of MDCK (Madin-Darby Canine Kidney) cells has been established. The cells are seeded and grow to confluence.
# The compartment (1) in contact with the microporous membrane and the basolateral pole of the cells is referred to as the basolateral compartment. The compartment (2), in contact with the apical pole of the cells, is referred to as the apical compartment.
# Each of the compartments is filled with medium consisting of the following: Minimum Essential Medium with Earle Salt (MEM), 2 mM glutamine, 2 mM Hepes, pH 7, 5 U/ml penicillin, 5 μg/ml streptomycin, supplemented with a mixture of protease inhibitors.
# For each experiment, the integrity of the tight junctions is controlled by measuring the resistance between the two compartments (R>2000Ω/cm^2).
# Moreover, the tightness of the epithelium was also verified by adding […] inulin (6.5×10^5 cpm/compartment), either to the apical compartment or to the basolateral compartment, and measuring the radioactivity in the other compartment 180 minutes later. […]
# The peptides are precipitated by adding 10% trichloro-acetic acid (TCA), and taken up in boiling Laemmli medium. […] The presence of the Penet-1 or NES-Penet peptides in the starting compartment, in the end compartment, or inside the cells, is detected by revelation with streptavidin-peroxidase as indicated in Example 1 above. […]
# At the end of the incubation, the contents of the basolateral compartment and of the apical compartment, and that of the cells, were analyzed as described above in order to detect the presence of the NES-Penet peptide.
# Furthermore, the passage of the peptides across an epithelium with tight junctions was evaluated using the device described in Example 2 above. […]
Compound,degradation of the peptide during passage,passage into the apical compartment
CC[C@H](C)[C@H](NC(=O)[C@H](CCCCN)NC(=O)[C@@H](NC(=O)[C@H](CCC(N)=O)NC(=O)[C@H](CCCNC(=N)N)NC(=O)[C@H](CCC(=O)O)NC(=O)[C@H](CC(N)=O)NC(=O)[C@H](CC(C)C)NC(=O)CNC(=O)[C@H](CC(C)C)NC(=O)[C@H](CCC(=O)O)NC(=O)[C@H](CCC(N)=O)NC(=O)[C@H](C)NC(=O)[C@H](CC(C)C)NC(=O)[C@H](CO)NC(=O)[C@H](CCC(N)=O)NC(=O)CCCCNC(=O)CCCC[C@@H]1SC[C@@H]2NC(=O)N[C@@H]21)[C@@H](C)CC)C(=O)N[C@@H](Cc1c[nH]c2ccccc12)C(=O)N[C@@H](Cc1ccccc1)C(=O)N[C@@H](CCC(N)=O)C(=O)N[C@@H](CC(N)=O)C(=O)N[C@@H](CCCNC(=N)N)C(=O)N[C@@H](CCCNC(=N)N)C(=O)N[C@@H](CCSC)C(=O)N[C@@H](CCCCN)C(=O)N[C@@H](Cc1c[nH]c2ccccc12)C(=O)N[C@@H](CCCCN)C(=O)N[C@@H](CCCCN)C(=O)O [NES-Penet],not accompanied by any degradation,–
CC[C@H](C)[C@H](NC(=O)[C@H](CCCCN)NC(=O)[C@@H]1CCCN1C(=O)[C@H](CCC(N)=O)NC(=O)[C@H](CCCNC(=N)N)NC(=O)[C@H](CCC(=O)O)NC(=O)[C@H](CC(N)=O)NC(=O)[C@H](CC(C)C)NC(=O)CNC(=O)[C@H](CC(C)C)NC(=O)[C@H](CCC(=O)O)NC(=O)[C@H](CCC(N)=O)NC(=O)[C@H](C)NC(=O)[C@H](CC(C)C)NC(=O)[C@H](CO)NC(=O)[C@H](CCC(N)=O)NC(=O)CCCCNC(=O)CCCC[C@@H]1SC[C@@H]2NC(=O)N[C@@H]21)C(=O)N[C@@H](Cc1c[nH]c2ccccc12)C(=O)N[C@@H](Cc1ccccc1)C(=O)N1CCC[C@H]1C(=O)N[C@@H](CC(N)=O)C(=O)N[C@@H](CCCNC(=N)N)C(=O)N[C@@H](CCCNC(=N)N)C(=O)N[C@@H](CCCCN)C(=O)N1CCC[C@H]1C(=O)N[C@@H](Cc1c[nH]c2ccccc12)C(=O)N[C@@H](CCCCN)C(=O)N[C@@H](CCCCN)C(=O)O [NES-Pen3P],–,much greater
"RQPKIWFPNRRKPWKK [Pen3P, RQPKIWFPNRRKPWKK, reference compound]",–,very slight passage

# From patent US8242088B2, “Carrier vectors through an epithelium with tight junctions” (Centre National de la Recherche Scientifique, priority 2000, dated 2012)
